Results on eleven molecules are retold here after PubChem BioAssay (NCI).

Test systems include OVCAR-8 ovarian; HOP-62 NSCLC; SK-OV-3 ovarian; CAKI-1 renal; A498 renal; EKVX NSCLC; T-47D breast; IGROV1 ovarian; LOX IMVI melanoma; SNB-19 CNS.
Common to all, as to test: NCI anticancer screen, dose series, 48 h

SMILES strings stand for the structures.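 Grown in 96-well plates, cells were treated for 48 hours with each compound at five concentrations. Insufficient inhibition: endpoint recorded as highest concentration tested. The concentration for full growth arrest is given as TGI.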

With `COc1ccc(OC)c(C2Cc3cnc4nc(N)nc(N)c4c3C2)c1` (stereo not given), the TGI in the assay on OVCAR-8 ovarian was 96.9 µM; in the assay on HOP-62 NSCLC, greater than 100 µM; in the assay on SK-OV-3 ovarian it was greater than 100 µM; with CAKI-1 renal, greater than 100 µM; with A498 renal, 33 µM; with EKVX NSCLC, greater than 100 µM. For the same molecule, the TGI with T-47D breast is 65.5 µM; in the assay on IGROV1 ovarian, 50.2 µM; with LOX IMVI melanoma it was 47.6 µM; in the assay on SNB-19 CNS, greater than 100 µM.

For `COc1cc(C2SCC(=O)N2c2ccc(Cl)c(Cl)c2)cc(OC)c1OC` (stereo not given), the TGI in the assay with OVCAR-8 ovarian was greater than 100 µM; in the assay with HOP-62 NSCLC, greater than 100 µM; in the assay with SK-OV-3 ovarian it was greater than 100 µM; in the assay on CAKI-1 renal, greater than 100 µM; in the assay with A498 renal, greater than 100 µM; in the assay on EKVX NSCLC, greater than 87.9 µM. The TGI was greater than 63.6 µM in the assay on T-47D breast, greater than 100 µM with IGROV1 ovarian, greater than 100 µM in the assay on LOX IMVI melanoma and greater than 100 µM in the assay on SNB-19 CNS.

Regarding `CCOC(=O)c1ccc(NC(=O)O/N=C(/Cl)CCl)cc1`, the TGI in the assay with OVCAR-8 ovarian, in the assay with HOP-62 NSCLC, in the assay with SK-OV-3 ovarian, in the assay on CAKI-1 renal, with A498 renal and with EKVX NSCLC was greater than 100 µM in each case. In addition, the TGI in the assay on T-47D breast, with IGROV1 ovarian, in the assay with LOX IMVI melanoma and in the assay on SNB-19 CNS was greater than 100 µM each time.

In the case of `C[C@@H]1C[C@](O)([C@@H](C)Cl)C(=O)O[C@@H]2CCN3CC=C(COC(=O)[C@]1(C)O)[C@H]23`, the TGI in the assay on OVCAR-8 ovarian, in the assay with HOP-62 NSCLC, with SK-OV-3 ovarian, with CAKI-1 renal, in the assay with A498 renal and in the assay with EKVX NSCLC was greater than 100 µM each time. The TGI is greater than 100 µM in the assay on T-47D breast, greater than 100 µM with IGROV1 ovarian, greater than 100 µM with LOX IMVI melanoma and greater than 10 µM in the assay on SNB-19 CNS.

`CC(C)(C)c1cc(C(=O)/C=C/C=C/c2ccccc2)cc(C(C)(C)C)c1O`: the TGI in the assay with OVCAR-8 ovarian was 58.5 µM; in the assay on HOP-62 NSCLC it was greater than 100 µM; in the assay with SK-OV-3 ovarian it was greater than 100 µM; in the assay on CAKI-1 renal it was greater than 100 µM; in the assay with A498 renal, greater than 80.7 µM; in the assay with EKVX NSCLC, greater than 100 µM. Besides, the TGI in the assay on T-47D breast is greater than 100 µM; in the assay with IGROV1 ovarian it was greater than 100 µM; in the assay on LOX IMVI melanoma, 50.9 µM; in the assay on SNB-19 CNS, 77.8 µM.

`C[C@H]1C2Cc3cc(N)ccc3[C@@]1(C)CCN2CCc1ccccc1`: the TGI in the assay with OVCAR-8 ovarian, in the assay on HOP-62 NSCLC, in the assay on SK-OV-3 ovarian, with CAKI-1 renal, in the assay with A498 renal and in the assay with EKVX NSCLC was greater than 100 µM throughout. Also, the TGI in the assay with T-47D breast was greater than 100 µM; in the assay with IGROV1 ovarian, greater than 100 µM; in the assay with LOX IMVI melanoma, 41.2 µM; with SNB-19 CNS, greater than 100 µM.

As for `C[C@@]12CCC3C1C=C1C(=O)c4cc(O)ccc4C(=O)[C@]1(O2)[C@@]3(C)C=O`, the TGI with OVCAR-8 ovarian turned out to be 42.6 µM; in the assay on HOP-62 NSCLC it was 20.2 µM; in the assay with SK-OV-3 ovarian, 21.5 µM; in the assay on CAKI-1 renal, 13.7 µM; in the assay with A498 renal, 9.59 µM; with EKVX NSCLC, 22.5 µM. In addition, the TGI turned out to be 14 µM with T-47D breast, 19.6 µM in the assay on IGROV1 ovarian, 11.2 µM with LOX IMVI melanoma and 18.4 µM in the assay on SNB-19 CNS.

With `O=[N+]([O-])c1ccc(S(=O)(=O)N=Ic2ccccc2)cc1`, the TGI with OVCAR-8 ovarian, in the assay with HOP-62 NSCLC, with SK-OV-3 ovarian, in the assay with CAKI-1 renal, in the assay with A498 renal and with EKVX NSCLC was greater than 100 µM each time. The TGI in the assay with T-47D breast, with IGROV1 ovarian, in the assay on LOX IMVI melanoma and in the assay with SNB-19 CNS was greater than 100 µM in each case.

For the molecule `O=C(NC(CO)Cc1ccc(Oc2cc(CC(CO)NC(=O)OCc3ccccc3)ccc2OC(=O)OCc2ccccc2)cc1)OCc1ccccc1` (stereo not given), the TGI was 40.6 µM with OVCAR-8 ovarian; 52.6 µM with HOP-62 NSCLC; 69.8 µM in the assay on SK-OV-3 ovarian; greater than 100 µM in the assay on CAKI-1 renal; 50.2 µM with A498 renal; 47.8 µM in the assay on EKVX NSCLC. Also, the TGI was 23.1 µM with T-47D breast, 46.6 µM in the assay with IGROV1 ovarian, 32.9 µM in the assay with LOX IMVI melanoma and greater than 100 µM in the assay on SNB-19 CNS.

Take `CC(NNC(=O)CC(=O)N(C(=O)c1ccccc1)c1ccc(Cl)cc1)c1cc2ccccc2oc1=O` (stereo not given): the TGI in the assay with OVCAR-8 ovarian, with HOP-62 NSCLC, in the assay with SK-OV-3 ovarian, in the assay with CAKI-1 renal, in the assay on A498 renal and in the assay on EKVX NSCLC was greater than 10 µM each time. The TGI with T-47D breast, in the assay on IGROV1 ovarian, in the assay on LOX IMVI melanoma and in the assay with SNB-19 CNS was greater than 10 µM each time.

For the molecule `S=c1[nH]n2c(COc3cccc(OCc4nnc5sc(=S)[nH]n45)c3)nnc2s1`, the TGI in the assay with OVCAR-8 ovarian, in the assay with HOP-62 NSCLC, in the assay on SK-OV-3 ovarian, in the assay on CAKI-1 renal, in the assay with A498 renal and with EKVX NSCLC was greater than 100 µM throughout. The TGI in the assay with T-47D breast, with IGROV1 ovarian, with LOX IMVI melanoma and in the assay on SNB-19 CNS was greater than 100 µM each time.
